From patent publication US12616753B2, “HSP70 inhibitors and methods of using same” (THE WISTAR INSTITUTE, priority 2020, dated 2026)

Legend:
[1] = Half-life of PET-16 in plasma
[2] = Pharmacokinetics in mice; assay type: in vivo; details: 10 mg/kg
Source text: FIGS. 8A-8E show HSP70 inhibition is effective on mouse CRC cell lines. FIG. 8A: Association of HSPA1A gene expression and survival rate of patients with colorectal adenocarcinoma (COAD). Patient data was gathered from USCS Xena platform (GDC-TCGA COAD; n=435). Log-rank test was used to determine significance. p=0.0004. FIG. 8B: Association of HSPA1A gene expression and stage of COAD (n=440). Wilcoxon rank sum test was used to determine significance. * p<0.05, *** p<0.001. FIG. 8C: Body weights of mice injected with HT-29 tumor xenografts. Weights were measured at the start of the treatment to determine mouse toxicity. n.s. not significant, n=10 mice per group. FIG. 8D: H&E staining of livers and colons of mice injected with HT-29 tumor xenografts. Tissues were collected at the end of the study. FIG. 8E. Pharmacokinetic values of AP-4-139B in the liver, plasma, and brain from three CDI mice treated with 10 mg/kg of compound.

[3] = test system: MC38 and HT-29 cells; assay: Extracellular ATP release (CellTiter-Glo); assay type: cell-based
Protocol: (§1) FIG. 6A: 1×10^6 MC38 cells were injected subcutaneously into the right flank of 6-8-week-old male C57Bl/6 mice. Once tumors reached an approximate volume of 100 mm^3, mice were treated with AP-4-139B (10 mg/kg) every 48 hours. 20 days after the start of treatment, tumors were excised, weighed, minced and digested. Tumor-infiltrating and splenic conventional CD4 (cCD4) (Live CD45^+ DUMP^− CD3^+CD4^+Foxp3^−), Tregs (Live CD45^+ DUMP^− CD3^+CD4^+Foxp3^+), CD8 (Live CD45^+ DUMP^− CD3^+CD8^+) T-cells, and Dendritic Cells (Live CD45^+ DUMP^− CD3^−CD11c^+MHCII^+) numbers were assessed by flow cytometry. * p<0.05, n.s. not significant. n=8 mice per group. FIG. 6B: MC38 and HT-29 cells were treated with the indicated concentrations of AP-4-139B for either 8 or 24 hours; media was collected and subjected to WB for HMGB1. Data shown are representative of three technical replicates. FIG. 6C: MC38 and HT-29 cells were treated with the indicated concentrations of AP-4-139B for three hours and then assayed for extracellular ATP release. Each graphical representation indicates the mean±the standard deviation of three independent experiments relative to control (DMSO-treated) cells.
FIG. 6D: MC38 cells were treated with 5 μM AP-4-139B for 24 hours and subjected to flow cytometry, using Alexa488-tagged calreticulin antibody. *** p<0.001, n=4 biological replicates performed in duplicate. FIG. 6E: MC38 cells were treated with increasing concentrations of AP-4-139B, G-TPP, 17-AAG or Metformin for 3 hours and then assayed for extracellular ATP release. Three independent cultures were assayed for each treatment, and DMSO-treated cells were used as internal controls. Error bars represent standard deviation (SD).
The XF Cell Mito Stress Test was performed. Briefly, HT-29 (10,000 cells/well), IMR90 (15,000 cells/well), and 1205Lu (15,000 cells/well) were plated in Seahorse 96-well cell culture microplates, treated with the respective inhibitors for 24 hours, and subjected to the Seahorse XF Cell Mito Stress Test, according to the manufacturer's protocol (Agilent Technologies). For extracellular HMGB1 release, 1×10^6 MC38 cells were plated in 10-cm dishes. The next day, cells were treated with the indicated concentrations of AP-4-139B for 8 or 24 hours in serum-free media. Media was collected and spun down at 2,000 rpm for 5 minutes to pellet any remaining cells or debris. Media was then transferred to Amicon Ultra 15, 10K tubes and spun down at 4,000 rpm for 45 minutes, according to the manufacturer's protocol. […] For extracellular ATP release, ATP was measured using the CellTiter-Glo Kit (Promega catalog #G7570). […] 10 μl of CellTiter-Glo Reaction Mix was then mixed with 10 μl of culture media; the luminescence signal was detected using a luminometer.

[4] = test system: MC38 tumors; assay: Flow cytometric immunophenotyping of MC38 tumors; assay type: in vivo, mouse; details: 10 mg/kg every 48 hours, 20 days
Protocol: as §1, with “Each graphical representation indicates the mean±the standard deviation of three independent experiments relative to control (DMSO-treated) cells.” left out
Tumors were excised, weighed with an electronic scale, minced and digested in 5 mL HBSS containing 1 mg/ml Type 1 Collagenase from Clostridium histolyticum (Sigma-Aldrich) for 30 minutes at 37° C. […] Samples were analyzed using FACSymphony A3 (BD Biosciences) flow cytometer equipped with 5 lasers. Data were analyzed using FlowJo Version 10 and GraphPad Prism software.

[5] = test system: CCD 841 CoN cells; assay: Trypan Blue exclusion viability assay, normal colon epithelial cells; assay type: cell-based; details: 10 μM, 48 hours

SMILES | half-life [1] [h] | brain penetrance [2] | half-life in plasma [2] | half-life ([2]; CDI, mouse, plasma) [h] | ATP release ([3]; MC38 and HT-29, three hours) | ATP release, comparison of compounds ([3]; MC38 cells, increasing concentrations, 3 hours) | abundance of immune cell types in spleens [4] | immune cell infiltrates (CD4+ T cell, CD8+ T cell, dendritic cells, Tregs) in tumors [4] | toxicity to normal colon epithelial cells [5]
C(#C[P+](c1ccccc1)(c1ccccc1)c1ccccc1)c1ccccc1 [PET-16, Triphenyl(phenylethynyl)phosphonium bromide, reference compound] | < 0.5 |  |  |  |  |  |  |  | 
c1ccc(-c2cn3nc(CCCCCC[P+](c4ccccc4)(c4ccccc4)c4ccccc4)sc3n2)cc1 [AP-4-139B, Triphenyl(6-(6-phenylimidazo[2,1-b][1,3,4]thiadiazol-2-yl)hexyl)phosphonium bromide] |  | modest brain penetrance | > five | > 5 | ATP release | most significant release of ATP | no changes in abundance | significantly increased immune cell infiltrates | far less sensitive
